23 compounds from patent US20090054392A1, “NAPHTHYLPYRIMIDINE, NAPHTHYLPYRAZINE AND NAPHTHYLPYRIDAZINE ANALOGS AND THEIR USE AS AGONISTS OF THE WNT-BETA-CATENIN CELLULAR MESSAGING SYSTEM” (Wyeth, priority 2007, published 2009) can be followed below.

For the data set, the system named is Dkk1-LRP5-TCF-Luciferase. Nature of the data set: Functional Dkk1-LRP5-TCF-Luciferase Assay in U2OS Cells. As to conditions: for EC50 / fold induction at 20 µM / fold induction at 2 µM: Homo sapiens, U2OS; for fold induction at 20 µM: read-out: C = TCF ACTIVITY/DMSO CONTROL Fold induction @ 20.0 uM, 20.0 uM compound; for A = MAX FOLD Induction/DMSO CONTROL: maximum fold induction over DMSO control; for fold induction at 2 µM: read-out: B = TCF ACTIVITY/DMSO CONTROL Fold induction @ 2.0 uM, 2.0 uM compound.

As usually defined, the EC50 is the concentration at which the effect is half-maximal. Low readings indicate greater potency, high ones weaker potency.

In the case of `CN(C)[C@H]1CCN(c2nccc(-c3ccc4ccccc4c3)n2)C1` [(3S)—N,N-dimethyl-1-[4-(2-naphthyl)pyrimidin-2-yl]pyrrolidin-3-amine], the EC50 worked out at 3000 nM, the fold induction at 20 µM stood at 0.08 and the “A = MAX FOLD Induction/DMSO CONTROL” value stood at 3.390 fold.

For `CN(C)[C@H]1CCN(C(=O)[C@H]2CCCN2c2nccc(-c3ccc4ccccc4c3)n2)C1` [(3S)—N,N-dimethyl-1-{1-[4-(2-naphthyl)pyrimidin-2-yl]-D-prolyl}pyrrolidin-3-amine], the fold induction at 2 µM amounted to 1.05, the fold induction at 20 µM was 2.43 and the “A = MAX FOLD Induction/DMSO CONTROL” value was 2.115 fold.

For `CN(C)[C@H]1CCN(C(=O)[C@@H]2CCCN2c2nccc(-c3ccc4ccccc4c3)n2)C1` [(3S)—N,N-dimethyl-1-{1-[4-(2-naphthyl)pyrimidin-2-yl]-L-prolyl}pyrrolidin-3-amine], the fold induction at 2 µM was determined as 1.16, the fold induction at 20 µM came out at 3.37 and the “A = MAX FOLD Induction/DMSO CONTROL” value came out at 2.175 fold.

`CN(C)C(=O)N1CC[C@H](Nc2nccc(-c3ccc4ccccc4c3)n2)C1` [(3S)—N,N-dimethyl-3-{[4-(2-naphthyl)pyrimidin-2-yl]amino}pyrrolidine-1-carboxamide]: the EC50 is 2700 nM, the fold induction at 2 µM was found to be 2.05, the fold induction at 20 µM turned out to be 3.05 and the “A = MAX FOLD Induction/DMSO CONTROL” value is on record as 2.945 fold.

With `CN(C)S(=O)(=O)N1CC[C@H](Nc2nccc(-c3ccc4ccccc4c3)n2)C1` [(3S)—N,N-dimethyl-3-{[4-(2-naphthyl)pyrimidin-2-yl]amino}pyrrolidine-1-sulfonamide], the EC50 came out at 3960 nM, the fold induction at 2 µM was 1.09, the fold induction at 20 µM amounted to 2.01 and the “A = MAX FOLD Induction/DMSO CONTROL” value is 2.050 fold.

`c1ccc2cc(-c3ccnc(N4CC[C@H](NCCN5CCOCC5)C4)n3)ccc2c1` [(3S)—N-(2-morpholin-4-ylethyl)-1-[4-(2-naphthyl)pyrimidin-2-yl]pyrrolidin-3-amine]: the fold induction at 2 µM was 1.39 and the fold induction at 20 µM is 0.91.

Regarding `CC(C)(C)N[C@H]1CCN(c2nccc(-c3ccc4ccccc4c3)n2)C1` [(3S)—N-(tert-butyl)-1-[4-(2-naphthyl)pyrimidin-2-yl]pyrrolidin-3-amine], the fold induction at 2 µM was found to be 2.39 and the “A = MAX FOLD Induction/DMSO CONTROL” value is given as 2.690 fold.

On to `CN(C1CCCCC1)[C@H]1CCN(c2nccc(-c3ccc4ccccc4c3)n2)C1` [(3S)—N-cyclohexyl-N-methyl-1-[4-(2-naphthyl)pyrimidin-2-yl]pyrrolidin-3-amine], for which the fold induction at 2 µM worked out at 1.22 and the fold induction at 20 µM was determined as 0.01.

Take `CCNC(=O)N1CC[C@H](Nc2nccc(-c3ccc4ccccc4c3)n2)C1` [(3S)—N-ethyl-3-{[4-(2-naphthyl)pyrimidin-2-yl]amino}pyrrolidine-1-carboxamide]: the fold induction at 2 µM was 2.49, the fold induction at 20 µM amounted to 2.81 and the “A = MAX FOLD Induction/DMSO CONTROL” value was 2.500 fold.

Consider `CN[C@H]1CCN(c2nccc(-c3ccc4ccccc4c3)n2)C1` [(3S)—N-methyl-1-[4-(2-naphthyl)pyrimidin-2-yl]pyrrolidin-3-amine], for which the fold induction at 2 µM was determined as 1.75.

Turning to `N[C@H]1CCN([C@@H]2CCN(c3nccc(-c4ccc5ccccc5c4)n3)C2)C1` [(3S,3′R)-1′-[4-(2-naphthyl)pyrimidin-2-yl]-1,3′-bipyrrolidin-3-amine], the fold induction at 2 µM is 1.2.

Turning to `O[C@H]1CCN([C@@H]2CCN(c3nccc(-c4ccc5ccccc5c4)n3)C2)C1` [(3S,3′R)-1′-[4-(2-naphthyl)pyrimidin-2-yl]-1,3′-bipyrrolidin-3-ol], the fold induction at 20 µM was 3.

In the case of `CN(C)[C@H]1CCN([C@@H]2CCN(c3nccc(-c4ccc5ccccc5c4)n3)C2)C1` [(3S,3′R)-N,N-dimethyl-1′-[4-(2-naphthyl)pyrimidin-2-yl]-1,3′-bipyrrolidin-3-amine], the concentration for a half-maximal effect (EC50) is 1110 nM, the fold induction at 2 µM turned out to be 2.64 and the “A = MAX FOLD Induction/DMSO CONTROL” value was 3.175 fold.

`O[C@H]1CCN([C@H]2CCN(c3nccc(-c4ccc5ccccc5c4)n3)C2)C1` [(3S,3′S)-1′-[4-(2-naphthyl)pyrimidin-2-yl]-1,3′-bipyrrolidin-3-ol]: the fold induction at 2 µM was 2.1.

Take `CN(C)[C@H]1CCN([C@H]2CCN(c3nccc(-c4ccc5ccccc5c4)n3)C2)C1` [(3S,3′S)-N,N-dimethyl-1′-[4-(2-naphthyl)pyrimidin-2-yl]-1,3′-bipyrrolidin-3-amine]: the fold induction at 2 µM is 2.47, the fold induction at 20 µM was found to be 0.02 and the “A = MAX FOLD Induction/DMSO CONTROL” value is given as 2.030 fold.

With `c1ccc2cc(-c3ccnc(N4C[C@H]5CNC[C@H]5C4)n3)ccc2c1` [(3aR*,6aS*)-2-[4-(2-naphthyl)pyrimidin-2-yl]octahydropyrrolo[3,4-c]pyrrole], the fold induction at 2 µM came out at 1.73 and the fold induction at 20 µM amounted to 0.01.

Take `c1ccc2cc(-c3ccnc(N4CC[C@@H]5CNC[C@@H]5C4)n3)ccc2c1` [(3aR,7aS)-5-[4-(2-naphthyl)pyrimidin-2-yl]octahydro-1H-pyrrolo[3,4-c]pyridine]: the fold induction at 2 µM worked out at 1.8.

`O=C1CCCN1[C@@H]1CCN(c2nccc(-c3ccc4ccccc4c3)n2)C1` [(3′R)-1′-[4-(2-naphthyl)pyrimidin-2-yl]-1,3′-bipyrrolidin-2-one]: a half-maximal response (EC50) required 4510 nM, the fold induction at 2 µM was 1.43, the fold induction at 20 µM was 2.12 and the “A = MAX FOLD Induction/DMSO CONTROL” value worked out at 1.935 fold.

Take `c1ccc2cc(-c3ccnc(N4CC[C@@H](N5CCCC5)C4)n3)ccc2c1` [(3′R)-1′-[4-(2-naphthyl)pyrimidin-2-yl]-1,3′-bipyrrolidine]: the fold induction at 2 µM was found to be 1.38, the fold induction at 20 µM was determined as 2.62 and the “A = MAX FOLD Induction/DMSO CONTROL” value came out at 2.760 fold.

As for `O=C1CCCN1[C@H]1CCN(c2nccc(-c3ccc4ccccc4c3)n2)C1` [(3′S)-1′-[4-(2-naphthyl)pyrimidin-2-yl]-1,3′-bipyrrolidin-2-one], the concentration for a half-maximal effect (EC50) stood at 189 nM, the fold induction at 2 µM is 3.04, the fold induction at 20 µM was 3.62 and the “A = MAX FOLD Induction/DMSO CONTROL” value was 2.290 fold.

In the case of `c1ccc2cc(-c3ccnc(N4CC[C@H](N5CCCC5)C4)n3)ccc2c1` [(3′S)-1′-[4-(2-naphthyl)pyrimidin-2-yl]-1,3′-bipyrrolidine], the fold induction at 2 µM is 1.45 and the fold induction at 20 µM was 0.83.

For `O=C1N[C@H](C2CCN(c3nccc(-c4ccc5ccccc5c4)n3)CC2)CO1` [(4R)-4-{1-[4-(2-naphthyl)pyrimidin-2-yl]piperidin-4-yl}-1,3-oxazolidin-2-one], the fold induction at 2 µM was 1.4 and the fold induction at 20 µM was 0.01.

For `CC1(C)OC(=O)N[C@@H]1C1CCN(c2nccc(-c3ccc4ccccc4c3)n2)CC1` [(4R)-5,5-dimethyl-4-{1-[4-(2-naphthyl)pyrimidin-2-yl]piperidin-4-yl}-1,3-oxazolidin-2-one], the fold induction at 2 µM came to 1.98, the fold induction at 20 µM was determined as 1.39 and the “A = MAX FOLD Induction/DMSO CONTROL” value was 1.585 fold.
